{"source": "paper PMC10421868", "about": "“The acquisition order of leukemic drug resistance mutations is directed by the selective fitness associated with each resistance mechanism” (Scientific Reports, 2023)", "key": {"[1]": {"biological_target": "BCR::ABL1 kinase activity (Homo sapiens, UniProt P00519+P11274)", "sequence (P11274+P00519 fused)": "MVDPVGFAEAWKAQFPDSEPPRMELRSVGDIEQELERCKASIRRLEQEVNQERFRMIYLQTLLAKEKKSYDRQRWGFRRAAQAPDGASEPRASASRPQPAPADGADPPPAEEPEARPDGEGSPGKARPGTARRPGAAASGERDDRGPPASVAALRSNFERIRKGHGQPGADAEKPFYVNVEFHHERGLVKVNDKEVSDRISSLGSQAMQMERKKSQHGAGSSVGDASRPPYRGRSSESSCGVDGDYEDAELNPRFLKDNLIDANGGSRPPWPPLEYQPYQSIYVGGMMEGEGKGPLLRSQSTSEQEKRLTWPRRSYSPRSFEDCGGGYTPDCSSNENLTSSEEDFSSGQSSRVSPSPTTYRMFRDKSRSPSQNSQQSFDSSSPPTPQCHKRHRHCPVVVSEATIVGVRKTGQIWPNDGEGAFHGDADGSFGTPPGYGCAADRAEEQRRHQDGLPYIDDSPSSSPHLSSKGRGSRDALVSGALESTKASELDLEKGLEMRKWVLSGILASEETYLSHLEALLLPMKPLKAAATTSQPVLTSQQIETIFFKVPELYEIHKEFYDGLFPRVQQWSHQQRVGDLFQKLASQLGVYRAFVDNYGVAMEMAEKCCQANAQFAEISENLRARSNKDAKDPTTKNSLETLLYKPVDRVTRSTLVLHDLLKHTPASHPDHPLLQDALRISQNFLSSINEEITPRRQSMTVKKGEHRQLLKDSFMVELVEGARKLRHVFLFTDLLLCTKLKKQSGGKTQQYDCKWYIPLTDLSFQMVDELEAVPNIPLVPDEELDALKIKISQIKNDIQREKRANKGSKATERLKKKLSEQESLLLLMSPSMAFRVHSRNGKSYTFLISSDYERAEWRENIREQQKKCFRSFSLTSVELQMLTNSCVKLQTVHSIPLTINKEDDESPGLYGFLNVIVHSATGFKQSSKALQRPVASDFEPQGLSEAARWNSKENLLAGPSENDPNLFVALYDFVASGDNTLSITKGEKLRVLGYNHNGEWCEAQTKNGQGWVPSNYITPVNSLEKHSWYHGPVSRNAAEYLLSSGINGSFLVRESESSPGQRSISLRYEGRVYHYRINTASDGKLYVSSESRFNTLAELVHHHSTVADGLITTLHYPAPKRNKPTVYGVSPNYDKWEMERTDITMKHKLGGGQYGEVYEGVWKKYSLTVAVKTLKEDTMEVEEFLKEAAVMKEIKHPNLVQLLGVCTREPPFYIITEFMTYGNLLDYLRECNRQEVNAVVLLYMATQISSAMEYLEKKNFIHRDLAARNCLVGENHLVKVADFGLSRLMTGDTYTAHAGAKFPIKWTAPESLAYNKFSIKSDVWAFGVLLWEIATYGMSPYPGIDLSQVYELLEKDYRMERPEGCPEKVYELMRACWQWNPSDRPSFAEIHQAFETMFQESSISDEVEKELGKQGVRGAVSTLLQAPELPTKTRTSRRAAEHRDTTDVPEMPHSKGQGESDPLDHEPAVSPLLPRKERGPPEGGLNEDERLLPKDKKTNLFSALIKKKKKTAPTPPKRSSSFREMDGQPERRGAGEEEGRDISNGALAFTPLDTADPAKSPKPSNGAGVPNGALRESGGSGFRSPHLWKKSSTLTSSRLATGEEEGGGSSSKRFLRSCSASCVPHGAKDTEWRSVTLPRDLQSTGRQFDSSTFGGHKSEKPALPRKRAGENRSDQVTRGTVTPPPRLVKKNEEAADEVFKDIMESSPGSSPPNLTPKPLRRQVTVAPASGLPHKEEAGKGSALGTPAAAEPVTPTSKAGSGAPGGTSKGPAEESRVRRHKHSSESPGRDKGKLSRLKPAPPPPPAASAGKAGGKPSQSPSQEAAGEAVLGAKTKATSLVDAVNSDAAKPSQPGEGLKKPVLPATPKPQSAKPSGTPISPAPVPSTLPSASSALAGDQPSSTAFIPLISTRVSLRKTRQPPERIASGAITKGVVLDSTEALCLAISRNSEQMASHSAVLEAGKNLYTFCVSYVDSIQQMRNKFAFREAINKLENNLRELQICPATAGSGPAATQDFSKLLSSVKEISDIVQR", "method": "Western blotting for phosphorylated CT10 regulator of kinase-like (p-CrkL) was performed as previously described."}, "[2]": {"system": "Chronic Myeloid Leukemia patients", "details": "CML patients; cited from earlier work"}, "[3]": {"system": "K562 and K562 DasR cells", "assay": "Intracellular uptake and retention (IUR) assay", "type": "in vitro ADME", "details": "2 μM C14-dasatinib, 2 h, 37 °C", "method": "To determine the quantity of intracellular dasatinib in leukemic cells, and the dasatinib transport functionality of ABCG2, the intracellular uptake and retention (IUR) assay was performed as previously described. K562 and K562 DasR cells were washed and incubated with 0 or 2 μM C^14-dasatinib kindly provided by Bristol Myers Squibb (New York, NY), in the presence or absence of 0.5 μM Ko143. This was performed using 2 × 10^5 cells in 2 mL of RPMI-1640 + 10% FCS, for 2 h at 37 °C. Following incubation, cells were pelleted by centrifugation for 5 min at 6800 rpm then 30 s at 13,000 rpm. Radioactivity of C^14-dasatinib was determined independently in the supernatant and cell pellet using a Tri-Carb 2810R Liquid Scintillation Counter (Perkin Elmer, Inc., Waltham, MA). The IUR was reported as ng of dasatinib incorporated per 200,000 cells. Results are expressed as paired –/ + Ko143 samples."}}}
{"smiles": "COc1ccc2c3c([nH]c2c1)[C@H](CC(C)C)N1C(=O)[C@H](CCC(=O)OC(C)(C)C)NC(=O)[C@@H]1C3", "note": "[Ko143]", "values": [{"measurement": "Effect of addition of Ko143 on dasatinib IC50", "setting": "[1]; K562 25, 50 and 200 nM DasR lines", "result": "no effect"}, {"measurement": "Effect of Ko143 on ponatinib IC50", "setting": "[1]; K562 later stage DasR intermediates with lower ABCG2 expression, and DMSO control line", "result": "no significant change"}]}
{"smiles": "COc1cc(Nc2c(C#N)cnc3cc(OCCCN4CCN(C)CC4)c(OC)cc23)c(Cl)cc1Cl", "note": "[bosutinib]", "values": [{"measurement": "Suboptimal response, share of treated patients", "setting": "[2]", "result": "< 10", "unit": "%"}]}
{"smiles": "Cc1nc(Nc2ncc(C(=O)Nc3c(C)cccc3Cl)s2)cc(N2CCN(CCO)CC2)n1", "note": "[dasatinib]", "values": [{"measurement": "Intracellular dasatinib (IUR)", "setting": "[3]; K562 15 nM DasR cells, with 0.5 μM Ko143", "result": "19.39 ng/200,000 cells"}, {"measurement": "Dasatinib uptake (IUR)", "setting": "[3]; K562 15 nM DasR cells, without Ko143", "result": "12.15 ng/200,000 cells"}, {"measurement": "Dasatinib uptake (IUR)", "setting": "[3]; K562 control, with 0.5 μM Ko143", "result": "22.07 ng/200,000 cells"}, {"measurement": "Dasatinib uptake (IUR)", "setting": "[3]; K562 control, without Ko143", "result": "24.56 ng/200,000 cells"}, {"measurement": "Suboptimal response, share of treated patients", "setting": "[2]", "result": "< 10", "unit": "%"}]}
{"smiles": "Cc1ccc(NC(=O)c2ccc(CN3CCN(C)CC3)cc2)cc1Nc1nccc(-c2cccnc2)n1", "note": "[imatinib]", "values": [{"measurement": "10 year survival rate", "setting": "[2]", "result": "over 83%"}, {"measurement": "Suboptimal response, share of treated patients", "setting": "[2]", "result": "10–15%"}]}
{"smiles": "Cc1cn(-c2cc(NC(=O)c3ccc(C)c(Nc4nccc(-c5cccnc5)n4)c3)cc(C(F)(F)F)c2)cn1", "note": "[nilotinib]", "values": [{"measurement": "Suboptimal response, share of treated patients", "setting": "[2]", "result": "< 10", "unit": "%"}]}
